Source: patent US4659728A, “Hydroxy substituted 4,5-diphenyl-2-oxazole propanoic acid” (American Home Products Corporation, priority 1985, dated 1987)

What was measured:
[1] = test system: adjuvant arthritis (polyarthritis) in the rat; assay: Rat adjuvant arthritis; format: in vivo, rat (male Lewis); conditions: oral dose 150 mg/kg, days 0 to 15 except weekends; *p ≤ 0.01 from control
Procedure: (§1) The antiinflammatory utility of the compounds of this invention was established by standard procedures for evaluating antiinflammatory agents, namely, carrageenan paw edema in the rat and adjuvant arthritis (polyarthritis) in the rat. These procedures and the results obtained are summarized below:
Groups of 10 male Lewis rats (Charles River), weighing between 150-170 g were injected s.c. into the right paw with desiccated Mycobacterium butyricum (0.5 mg/0.1 ml) suspended in light mineral oil. Drugs were administered orally in 0.5% methylcellulose. The following dosing regimen was used: days 0 to 15 except for weekends. Both hind paw volumes, in milliliters, were measured by mercury plethysmography at the time of injection of the complete adjuvant (day 0). Paw volumes were measured on day 4 (injected paw only) and on day 16 (uninjected paw). Drug effects were expressed as percentage change from arthritic controls.

[2] = test system: inflammation; assay: Antiinflammatory activity overall (standard procedures: carrageenan paw edema and adjuvant arthritis in the rat); format: in vivo; conditions: compared with oxaprozin
Procedure: as §1
(§2) Groups of 6 male Sprague-Dawley rats (Honey Brook), weighing between 140-160 g were used in these experiments. Drugs were administered p.o. in 0.5% methylcellulose (400 centipoise). One hour after administering drugs or vehicle, 0.1 ml of 1% carrageenan was injected subplantar into the right hind paw. Right paw volumes were measured prior to carrageenan injection in milliliters using a mercury plethysmograph (i.e., zero time reading). After 3 hours, right paw volumes were remeasured and paw edema was calculated for each rat by subtracting the zero time reading from the 3 hour reading. Percent change in paw edema was calculated.
Groups of 10 male Lewis rats (Charles River), weighing between 150-170 g were injected s.c. into the right paw with desiccated Mycobacterium butyricum (0.5 mg/0.1 ml) suspended in light mineral oil. […] Both hind paw volumes, in milliliters, were measured by mercury plethysmography at the time of injection of the complete adjuvant (day 0). Paw volumes were measured on day 4 (injected paw only) and on day 16 (uninjected paw). […]

[3] = test system: carrageenan paw edema in the rat; assay: Rat carrageenan edema; format: in vivo, rat (male Sprague-Dawley); conditions: 1 h before carrageenan, edema at 3 h, *p ≤ 0.01 from control
Procedure: as §1, §2

| Compound | % Inhibition of control uninjected paw edema at day 16 [1] | effectiveness in inhibiting inflammation [2] | % Inhibition of control paw edema ([3]; oral dose 150 mg/kg) | % Inhibition of control paw edema ([3]; oral dose 200 mg/kg) |
| --- | --- | --- | --- | --- |
| O=C(O)CCc1nc(-c2ccccc2)c(-c2ccc(O)cc2)o1 [Example 1, 5-(4-hydroxyphenyl)-4-phenyl-2-oxazolepropanoic acid] | 36% | as effective as oxaprozin in inhibiting inflammation | 43% |  |
| O=C(O)CCc1nc(-c2ccc(O)cc2)c(-c2ccccc2)o1 [Example 2, 4-(4-Hydroxyphenyl)-5-phenyl-2-oxazolepropanoic acid] | 30% | as effective as oxaprozin in inhibiting inflammation | 46% |  |
| O=C(O)CCc1nc(-c2ccccc2)c(-c2ccccc2)o1 [Oxaprozin, 4,5-diphenyl-2-oxazolepropanoic acid, reference compound] | 25% |  |  | 51% |
